Source: ChEMBL document CHEMBL1201862, “PubChem BioAssay data set” (2004)
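1) Cells in 96-well plates. 2) Compound, 48 h, 5 concentrations. 3) Linear interpolation between surrounding doses. 4) Unreached endpoint = highest concentration. Here, GI50 denotes the concentration required for 50% inhibition of growth.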 Activity calls are given as the source filed them. No stated cut-off is given here; in the data, active = GI50 up to about 1.1 µM and inactive = higher.

Assays:
Test in all cases: inhibition of tumour cell growth, NCI panel, 48 h
[1] = test system: RPMI-8226
[2] = test system: CAKI-1
[3] = test system: ACHN
[4] = test system: A549
[5] = test system: BT-549
[6] = test system: HL-60
[7] = test system: NCI-H522
[8] = test system: CCRF-CEM
[9] = test system: NCI-H23
[10] = test system: UO-31
[11] = test system: DU-145
[12] = test system: LOX IMVI
[13] = test system: SK-OV-3
[14] = test system: 786-0
[15] = test system: SN12C
[16] = test system: MCF7
[17] = test system: UACC-257
[18] = test system: Hs-578T
[19] = test system: SNB-75
[20] = test system: Malme-3M
[21] = test system: HCT-116
[22] = test system: HOP-62
[23] = test system: NCI/ADR-RES
[24] = test system: MDA-MB-435
[25] = test system: KM12
[26] = test system: IGROV-1
[27] = test system: SR
[28] = test system: HCT-15
[29] = test system: OVCAR-8
[30] = test system: T47D
[31] = test system: COLO 205
[32] = test system: NCI-H226
[33] = test system: SK-MEL-28
[34] = test system: OVCAR-4
[35] = test system: MOLT-4
[36] = test system: K562
[37] = test system: EKVX
[38] = test system: UACC-62
[39] = test system: SF-268
[40] = test system: SW-620
[41] = test system: HOP-92
[42] = test system: SF-295
[43] = test system: SNB-19
[44] = test system: HT-29
[45] = test system: NCI-H460
[46] = test system: OVCAR-5
[47] = test system: SK-MEL-5
[48] = test system: TK-10
[49] = test system: PC-3
[50] = test system: MDA-N
[51] = test system: M14
[52] = test system: U-251
[53] = test system: OVCAR-3
[54] = test system: HCC 2998
[55] = test system: MDA-MB-231
[56] = test system: A498
[57] = test system: SF-539
[58] = test system: RXF 393
[59] = test system: SK-MEL-2

SMILES: O=C(NC(Cc1ccccc1)P(=O)(O)c1ccccc1)OCc1ccccc1 (centres undefined)
- GI50 [1]: > 100 µM (inactive)
- GI50 [2]: > 100 µM (inactive)
- GI50 [3]: > 100 µM (inactive)
- GI50 [4]: > 100 µM (inactive)
- GI50 [5]: > 100 µM (inactive)
- GI50 [6]: > 100 µM (inactive)
- GI50 [7]: > 100 µM (inactive)
- GI50 [8]: > 100 µM (inactive)
- GI50 [9]: > 100 µM (inactive)
- GI50 [10]: > 100 µM (inactive)
- GI50 [11]: > 100 µM (inactive)
- GI50 [12]: > 100 µM (inactive)
- GI50 [13]: > 100 µM (inactive)
- GI50 [14]: > 100 µM (inactive)
- GI50 [15]: > 100 µM (inactive)
- GI50 [16]: > 100 µM (inactive)
- GI50 [17]: > 100 µM (inactive)
- GI50 [18]: > 100 µM (inactive)
- GI50 [19]: > 100 µM (inactive)
- GI50 [20]: > 100 µM (inactive)
- GI50 [21]: > 100 µM (inactive)
- GI50 [22]: > 100 µM (inactive)
- GI50 [23]: > 100 µM (inactive)
- GI50 [24]: > 100 µM (inactive)
- GI50 [25]: > 100 µM (inactive)
- GI50 [26]: > 100 µM (inactive)
- GI50 [27]: > 100 µM (inactive)
- GI50 [28]: > 100 µM
- GI50 [29]: > 100 µM (inactive)
- GI50 [30]: > 100 µM (inactive)
- GI50 [31]: > 100 µM (inactive)
- GI50 [32]: > 100 µM (inactive)
- GI50 [33]: > 100 µM (inactive)
- GI50 [34]: > 100 µM (inactive)
- GI50 [35]: > 100 µM (inactive)
- GI50 [36]: > 100 µM (inactive)
- GI50 [37]: > 100 µM (inactive)
- GI50 [38]: > 100 µM (inactive)
- GI50 [39]: > 100 µM (inactive)
- GI50 [40]: > 100 µM (inactive)
- GI50 [41]: > 100 µM (inactive)
- GI50 [42]: > 100 µM (inactive)
- GI50 [43]: > 100 µM (inactive)
- GI50 [44]: > 100 µM (inactive)
- GI50 [45]: > 100 µM (inactive)
- GI50 [46]: > 100 µM (inactive)
- GI50 [47]: > 100 µM (inactive)
- GI50 [48]: > 100 µM (inactive)
- GI50 [49]: > 100 µM (inactive)
- GI50 [50]: > 100 µM (inactive)
- GI50 [51]: > 100 µM (inactive)
- GI50 [52]: > 100 µM (inactive)
- GI50 [53]: > 100 µM (inactive)

SMILES: C=CCn1c(-c2ccc([N+](=O)[O-])cc2)cs/c1=N\C(P(=O)(O)O)P(=O)(O)O
- GI50 [1]: > 100 µM (inactive)
- GI50 [2]: > 100 µM (inactive)
- GI50 [3]: > 100 µM (inactive)
- GI50 [4]: > 100 µM (inactive)
- GI50 [5]: > 100 µM (inactive)
- GI50 [6]: 0.0383 µM (active)
- GI50 [7]: > 100 µM (inactive)
- GI50 [8]: > 100 µM (inactive)
- GI50 [9]: > 100 µM (inactive)
- GI50 [10]: > 100 µM (inactive)
- GI50 [11]: > 100 µM (inactive)
- GI50 [12]: > 100 µM (inactive)
- GI50 [13]: > 100 µM (inactive)
- GI50 [14]: > 100 µM (inactive)
- GI50 [16]: > 100 µM (inactive)
- GI50 [17]: > 100 µM (inactive)
- GI50 [54]: > 100 µM (inactive)
- GI50 [18]: > 100 µM (inactive)
- GI50 [19]: > 100 µM (inactive)
- GI50 [20]: > 100 µM (inactive)
- GI50 [21]: > 100 µM (inactive)
- GI50 [22]: > 100 µM (inactive)
- GI50 [23]: > 100 µM (inactive)
- GI50 [24]: > 100 µM (inactive)
- GI50 [25]: > 100 µM (inactive)
- GI50 [55]: > 100 µM (inactive)
- GI50 [26]: > 100 µM (inactive)
- GI50 [27]: > 100 µM (inactive)
- GI50 [28]: > 100 µM
- GI50 [29]: > 100 µM (inactive)
- GI50 [31]: > 100 µM (inactive)
- GI50 [32]: > 100 µM (inactive)
- GI50 [33]: > 100 µM (inactive)
- GI50 [35]: > 100 µM (inactive)
- GI50 [36]: > 100 µM (inactive)
- GI50 [37]: > 100 µM (inactive)
- GI50 [38]: > 100 µM (inactive)
- GI50 [39]: > 100 µM (inactive)
- GI50 [40]: > 100 µM (inactive)
- GI50 [41]: > 100 µM (inactive)
- GI50 [56]: > 100 µM (inactive)
- GI50 [42]: > 100 µM (inactive)
- GI50 [43]: > 100 µM (inactive)
- GI50 [44]: > 100 µM (inactive)
- GI50 [45]: > 100 µM (inactive)
- GI50 [46]: > 100 µM (inactive)
- GI50 [47]: > 100 µM (inactive)
- GI50 [48]: > 100 µM (inactive)
- GI50 [57]: > 100 µM (inactive)
- GI50 [49]: > 100 µM (inactive)
- GI50 [50]: > 100 µM (inactive)
- GI50 [51]: > 100 µM (inactive)
- GI50 [52]: > 100 µM (inactive)
- GI50 [53]: > 100 µM (inactive)
- GI50 [58]: > 100 µM (inactive)

SMILES: NC(=O)OCc1c(-c2ccccc2)nn(-c2ccccc2)c1COC(N)=O
- GI50 [1]: > 100 µM (inactive)
- GI50 [2]: > 100 µM (inactive)
- GI50 [4]: > 100 µM (inactive)
- GI50 [5]: > 100 µM (inactive)
- GI50 [7]: > 100 µM (inactive)
- GI50 [9]: > 100 µM (inactive)
- GI50 [10]: > 100 µM (inactive)
- GI50 [11]: > 100 µM (inactive)
- GI50 [14]: > 100 µM (inactive)
- GI50 [15]: > 100 µM (inactive)
- GI50 [16]: > 100 µM (inactive)
- GI50 [17]: > 100 µM (inactive)
- GI50 [54]: > 100 µM (inactive)
- GI50 [19]: 45.7 µM (inactive)
- GI50 [20]: > 100 µM (inactive)
- GI50 [21]: > 100 µM (inactive)
- GI50 [23]: > 100 µM (inactive)
- GI50 [24]: > 100 µM (inactive)
- GI50 [25]: > 100 µM (inactive)
- GI50 [55]: > 100 µM (inactive)
- GI50 [26]: > 10 µM (inactive)
- GI50 [28]: > 100 µM
- GI50 [29]: > 100 µM (inactive)
- GI50 [30]: > 100 µM (inactive)
- GI50 [31]: > 100 µM (inactive)
- GI50 [32]: > 100 µM (inactive)
- GI50 [33]: > 100 µM (inactive)
- GI50 [34]: > 100 µM (inactive)
- GI50 [59]: > 100 µM (inactive)
- GI50 [38]: > 100 µM (inactive)
- GI50 [39]: > 100 µM (inactive)
- GI50 [40]: > 100 µM (inactive)
- GI50 [41]: > 100 µM (inactive)
- GI50 [42]: > 100 µM (inactive)
- GI50 [43]: > 100 µM (inactive)
- GI50 [44]: > 100 µM (inactive)
- GI50 [46]: > 100 µM (inactive)
- GI50 [47]: > 100 µM (inactive)
- GI50 [48]: > 100 µM (inactive)
- GI50 [57]: > 100 µM (inactive)
- GI50 [49]: > 100 µM (inactive)
- GI50 [50]: > 100 µM (inactive)
- GI50 [51]: > 100 µM (inactive)
- GI50 [52]: > 100 µM (inactive)
- GI50 [53]: > 100 µM (inactive)
- GI50 [58]: > 100 µM (inactive)
